Test results published in patent US20100086519A1, “Treatment of Hepatitis C Infection With Metalloporphyrins” (The Charlotte-Mecklenburg Hospital Authority d/b/a …, priority 2008, published 2010).

Assays:
J6/JFH1 HCV RNA = assay: HCV RNA by qRT-PCR in Huh-7.5 cells transfected with J6/JFH1 RNA; assay type: cell-based, hepatitis C virus; details: 10 μM, FIG. 8E
Description: (§1) Rice (the Rockefeller University, New York, N.Y.).
(§2) Total RNA from treated cells was extracted and cDNA was synthesized as described in Hou et al. Real time quantitative RT-PCR was performed using a MyiQ™ Single Color Real-Time PCR Detection System from Bio-Rad (Hercules, Calif.) and iQ™ SYBR Green Supermix Real-Time PCR kit (Bio-Rad). Samples without template and without reverse transcriptase were included as negative controls, which, as expected, produced negligible signals (Ct values>35). Fold-change values were calculated by comparative Ct analysis after normalizing for the quantity of GAPDH in the same samples.

HCV core protein = details: CNS3 cells, 0, 1, 5, 10 μM, 4 hours, FIG. 1C
Description: 9-13 cells, containing a replicating HCV nonstructural region, stably express HCV NS3 to NS5B. CNS3 cells stably express HCV core to NS3 (amino acid residues 1 through 1233 of the Con1 isolate; Gene Bank accession number AJ238799). Huh-7/T7 cells constitutively express the bacteriophage T7 RNA polymerase. The cells were maintained in DMEM supplemented with 10% (v/v) FBS and 500 μg/mL G418 for 9-13 cells, 10 μg/mL zeocin for CNS3 cells or 5 μg/mL zeocin for Huh-7/T7 cells. […] The Con1 cell line is a Huh-7.5 cell population containing the full-length HCV genotype 1b replicon with the highly adaptive serine to isoleucine substitution at amino acid 2204 of the polypeptide. […]
In brief, total proteins (30-50 μg) were separated on 4-15% gradient SDS-PAGE gels. […] Data are expressed as percentages of the controls (corresponding to the value obtained with the vehicle-treated cells), which were assigned values of one.
NS5A protein levels in 9-13 and Con1 cells, core protein levels in CNS3 cells, and NS5A and core protein levels in Huh-7/T7 cells transfected with pFK-Con1/GND (a plasmid encoding a replication deficient variant of Con1) exposed to different concentrations of ZnMP (0, 1, 5, 10 μM) for 4 hours were evaluated. […]

HCV NS5A protein [1] = biological target: T1, HCV NS5A protein (Hepatitis C virus genotype 1b, UniProt Q9WMX2); assay: NS5A protein levels in Huh-7/T7 cells transfected with pFK-Con1/GND; assay type: cell-based; design: processed into structural (C, E1, E2) and nonstructural (NS2, NS3, NS4A, NS4B, NS5A and NS5B) proteins; expressed in transfected cells; host or cells: Huh-7/T7 cells transiently transfected with pFK-Con1/GND; details: 24 h, FIG. 7C
T1 sequence (Q9WMX2 1973-2419): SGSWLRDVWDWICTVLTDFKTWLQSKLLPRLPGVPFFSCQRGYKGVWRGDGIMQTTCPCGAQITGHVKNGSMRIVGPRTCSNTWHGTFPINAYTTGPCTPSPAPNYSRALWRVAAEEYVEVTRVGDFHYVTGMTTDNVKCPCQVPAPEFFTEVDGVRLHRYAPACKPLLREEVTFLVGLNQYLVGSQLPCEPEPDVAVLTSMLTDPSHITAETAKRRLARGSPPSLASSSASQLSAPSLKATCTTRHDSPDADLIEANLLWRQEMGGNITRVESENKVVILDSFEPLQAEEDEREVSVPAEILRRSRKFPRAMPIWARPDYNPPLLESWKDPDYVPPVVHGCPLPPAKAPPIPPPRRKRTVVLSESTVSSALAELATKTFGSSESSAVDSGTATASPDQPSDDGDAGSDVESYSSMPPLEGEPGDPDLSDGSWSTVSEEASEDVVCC
Text: (§3) Biochim Biophys Acta 2008; 1779:195-203.
Total RNA and proteins were extracted.

J6/JFH1 HCV = assay: HCV RNA by qRT-PCR in Huh-7.5 cells infected with J6/JFH1 HCV; assay type: cell-based, hepatitis C virus; details: 10 μM, FIG. 8F
Description: as §1, §2

HCV NS5A protein [2] = biological target: T2, HCV NS5A protein (Hepatitis C virus genotype 2a, UniProt Q99IB8); assay: NS5A protein levels in Huh-7.5 cells transfected with J6/JFH1 RNA; assay type: cell-based; details: J6/JFH1 RNA transfected Huh-7.5 cells, 4 or 24 h, FIGS. 8A-8D
T2 construct: processed into structural (C, E1, E2) and nonstructural (NS2, NS3, NS4A, NS4B, NS5A and NS5B) proteins; expressed in transfected cells; host or cells: Huh-7.5 cells transfected with in vitro transcribed J6/JFH1 RNA
T2 sequence (Q99IB8 1977-2442): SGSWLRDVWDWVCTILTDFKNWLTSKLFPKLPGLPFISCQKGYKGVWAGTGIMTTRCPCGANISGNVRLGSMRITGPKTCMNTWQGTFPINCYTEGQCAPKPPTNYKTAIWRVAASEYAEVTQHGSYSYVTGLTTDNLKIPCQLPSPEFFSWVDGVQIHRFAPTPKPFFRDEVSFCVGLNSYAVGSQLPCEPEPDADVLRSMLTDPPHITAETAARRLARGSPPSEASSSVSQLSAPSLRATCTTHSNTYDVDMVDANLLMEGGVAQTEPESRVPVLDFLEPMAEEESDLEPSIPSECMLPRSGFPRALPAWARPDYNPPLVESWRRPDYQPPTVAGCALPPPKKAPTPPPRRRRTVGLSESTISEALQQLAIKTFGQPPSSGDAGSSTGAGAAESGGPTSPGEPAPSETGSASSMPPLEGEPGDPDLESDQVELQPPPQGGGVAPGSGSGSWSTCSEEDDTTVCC
Text: as §3, §1

HCV NS5A protein [3] = biological target: T1, HCV NS5A protein; assay: polyubiquitination of NS5A by immunoprecipitation and immunoblot in 9-13 cells; assay type: cell-based; design: processed into structural (C, E1, E2) and nonstructural (NS2, NS3, NS4A, NS4B, NS5A and NS5B) proteins; expressed in transfected cells; host or cells: 9-13 cells (human hepatoma cells with a replicating HCV NS3-NS5B region)
Description: Immunoprecipitation was carried out according to the Manufacturer's protocol. Briefly, cells were harvested in cold radioimmunoprecipitation assay (RIPA) buffer (50 mM Tris-HC1 [pH 7.4], 150 mM NaCl, 1 mM EDTA, 0.25% sodium deoxycholate, 1% IGEPAL CA-630, 1 mM PMSF, 1 mM NaF, 1 mM Na3VO4 and 1 μg/ml each of aprotinin, leupeptin, and pepstatin). The samples were pre-cleared with Protein A/G Agarose for 10 min at 4° C. and subsequently incubated while gently rotating at 4° C. overnight with primary antibody, followed by Protein A/G beads for 1 h at 4° C. Beads were spun down and washed twice with RIPA buffer. Protein samples were separated by electrophoresis on 4-15% SDS-PAGE gels, and transferred to PVDF membrane, conjugated ubiquitin was detected as described for Western blot analysis using anti-ubiquitin antibody.
This Example investigates whether ZnMP induces polyubquitination of NS5A to gain insight into the mechanism by which ZnMP mediates degradation of NS5A protein. 9-13 cells were treated without or with 10 μM ZnMP for 4 h. Total proteins were extracted for subsequent Western blot or immunoprecipitation analysis. Immunoprecipitation was carried out using anti-HCV NS5A antibody. Ubiquitin conjugation of NS5A [polyubiquitinated NS5A (Ub)n-NS5A]was examined with immunoprecipitation using an anti-HCV NS5A antibody and immunoblot using an anti-ubiquitin antibody. […] In FIG. 6B, ubiquitination of NS5A following ZnMP treatment, or vehicle (DMSO) only was compared. The positions of molecular mass markers (in kilodaltons) are indicated to the left of the gel. The bracket indicates polyubiquitinated NS5A. Asterisks indicate cross-reacting immunoglobulin heavy chain. […] These bands may represent polyubiquitinated NS5A.

In the case of `CCC1=C(C)c2cc3[nH]c(cc4nc(cc5[n-]c(cc1n2)c(C)c5CCC(=O)[O-])C(CCC(=O)[O-])=C4C)c(C)c3CC.[H+].[Zn+2]` [ZnMP, Zinc mesoporphyrin], the “decrease of HCV RNA levels” value (J6/JFH1 HCV RNA) is reported as about 70%, the “HCV core protein levels” value (HCV core protein) is reported as “no detectable effects” and the NS5A protein levels (HCV NS5A protein [1]) is reported as “markedly decreased”. For the same compound, the “decrease of HCV RNA levels” value (J6/JFH1 HCV) was about 90%, the NS5A protein levels (HCV NS5A protein [2]) was “rapid and profound decrease” and the “polyubquitination of NS5A (summary statement)” value (HCV NS5A protein [3]) was “induce polyubquitination”. For the same compound, the “polyubquitination of NS5A” value (HCV NS5A protein [3]; 9-13 cells, 10 μM, 4 h, FIG. 6B) was “induce polyubquitination”.
